In patent EP0248151A1, “Pantothenic acid as an antimutagenic agent” (SUNTORY LIMITED, priority 1983, dated 1984):

Tests used:
[1] = test system: St TA l00 or St TA 98 strain; assay: Ames test (preincubation method), inactivation of mutagenicity of carcinogens/mutagens by pantothenates, without S9; format: cell-based, Salmonella typhimurium
Experimental: (§1) • (i) Method: The preincubation method shown in Sugimura & Nagao: Chemical Mutagens, Vol. 6, page 4l, l98l was used. • (ii) Microorganism: Histidine requiring Salmonella typhimurium strains TA l00 and TA 98 (hereunder TA l00 and St TA 98) were used. • (iii) Preparation of samples • a) MNNG: To MNNG samples (l µg/plate), coenzyme A was added in amounts of 0.0l µM, 0.l µM and l.0 µM/plate. • b) Benzo[a]pyrene: To benzo[a]pyrene samples (l0 µg/plate), coenzyme A was added in amounts of 0.0009, 0.009 and 0.09µM/plate. • (iv) Measuring mutagenicity
• (i) Method: See Example l. • (ii) Microorganism: See Example l. • (iii) Preparation of samples • a) The carcinogenic or mutagenic substances used in Example 3 and their concentrations are listed in Table 5. [formula] • b) Adding pantothenates (Na and Ca salts) Pantothenates were added to each of the carcinogenic or mutagenic samples in amounts of 0, 0.005, 0.05, and 5.0 µM/plate. • (iv) Measuring mutagenicity To l00 µl of each of the samples prepared in (iii) a), 500 µl of l00 mM sodium phosphate buffer (pH 7.4) was added. Thereafter, l00 µl of a culture of St TA l00 or St TA 98 strain was added as indicated in Table 6. [formula] The respective mixtures were shaken for 20 minutes at 37°C. After adding 2.5 ml of a soft agar solution, the mixtures were spread on minimum glucose agar plates which had been supplemented with 0.l µM/plate of histidine for causing several […] of the cells. After incubation at 37°C for 48 hours, the number of colonies on the plates was counted as revertants.

[2] = test system: Salmonella typhimurium TA l00; assay: Ames test (preincubation method), inactivation of mutagenicity of MNNG, without S9; format: cell-based
Experimental: (§2) One of the methods for determining carcinogenicity that have recently been established is the Salmonella test (also known as the Ames test) that uses the requirement for histidine as an evaluation index (Ames, B.N. et al.: Mutation Res., Vol. 3l, 347, l975). […] Therefore, the present inventors chose to use the Ames test as a means for screening various compounds to discover cancer control substances.
as §1
(§3) To l00 µl of each of the samples prepared in (iii) a), 500 µl of l00 mM sodium phosphate buffer (pH 7.4) and l00 µl of a culture of St TA l00 were added. To l00 µl of each of the samples prepared in (iii) b), 500 µl of S9 mix (rat liver homogenate) and l00 µl of a culture of TA 98 were added. […] After incubation at 37°C for 48 hours, the number of colonies on the plates was counted as revertants. […]

[3] = test system: Salmonella typhimurium TA 98; assay: Ames test (preincubation method), inactivation of mutagenicity of benzo[a]pyrene, with S9 mix (rat liver homogenate); format: cell-based
Experimental: as §2, §1, §3

calcium pantothenate
inactivation of the mutagenicity of MNU ([1]; 6 mols of calcium pantothenate added to 1 mol of MNU): completely
inactivation of the mutagenicity of MNNG ([1]; 73 mols of calcium pantothenate added to 1 mol of MNNG): 48%

CC(C)(CO)[C@@H](O)C(=O)NCCC(=O)[O-].[Na+] [Sodium pantothenate, sodium pantothenate]
inactivation of the mutagenicity of methylglyoxal ([1]; 18 mols of sodium pantothenate added to 1 mol of methylglyoxal): 77%
inactivation of the mutagenicity of adriamycin ([1]; 2273 mols of sodium pantothenate added to 1 mol of adriamycin): 59%
inactivation of the mutagenicity of AF-2 ([1]; 6250 mols of sodium pantothenate added to 1 mol of AF-2): 58%

CC(C)(COP(=O)(O)OP(=O)(O)OC[C@H]1O[C@@H](n2cnc3c(N)ncnc32)[C@H](O)[C@@H]1OP(=O)(O)O)[C@@H](O)C(=O)NCCC(=O)NCCS [Coenzyme A, coenzyme A]
inhibition of the mutagenicity of MNNG ([2]; 150 mols of coenzyme A added to 1 mol of MNNG): completely
inactivation of the mutagenicity of benzo[a]pyrene ([3]; 10 mols of coenzyme A added to 1 mol of benzo[a]pyrene): about 90%

Cc1ncc(COP(=O)(O)O)c(C=O)c1O [Pyridoxal-5′-phosphoric acid, pyridoxal-5′-phosphoric acid]
inhibition of the mutagenicity of MNNG ([2]; 150 mols of compound added to 1 mol of MNNG): about 50%
inactivation of the mutagenicity of benzo[a]pyrene ([3]; 25 mols of compound added to 1 mol of benzo[a]pyrene): about 80%
